Like-named read-outs stand apart in the source and are kept apart here.
Key:
[1] = system: H3K27me3 in DLBCL cell lines; experiment: ELISA-based quantitation of H3K27me3 in treated cells; conditions: Homo sapiens, EZH2 WT and mutant DLBCL cell lines, 48 hours
Experimental: (§1) Biochemical assays utilized the 5-member PRC2 complex (human Flag-EZH2, EED, SUZ12, AEBP2, RbAp48) containing either WT or mutant EZH2, [^3H-]SAM and the indicated peptide substrate; reactions were incubated for 30 minutes. Global histone modification levels were determined by ELISA or western blot methods using antibodies specific for total histone H3, H3K27me1, H3K27me2, or H3K27me3. Cell proliferation and Caspase-3/7 activity were assessed using CellTiter-Glo and Caspase-Glo 3/7 (Promega), respectively. Gene expression profiling was conducted using Affymetrix Human Genome U133 Plus 2.0 microarrays. Differentially-expressed probe sets were determined by fitting the data to a linear model using the limma statistical package (http://www.bioconductor.org) and carrying out pair-wise contrasts of treated versus control. […] H3K27me3 ChIP reads were aligned using Bowtie (56). […] A custom PERL script was utilized to quantify the average basal H3K27me3 ChIP-seq tag density across gene sets. […]
Following tissue homogenization, tumor tissue lysates were prepared using the Epigentek Histone Extraction kit (OP-0006). […] Luminata Forte substrate (Millipore) was added 5 minutes before chemiluminescence was quantified with an EnVision multi-label plate reader (PerkinElmer). H3K27me3 levels were normalized to total H3 values and IC50 values were determined using a 4-parameter curve fit.

[2] = system: B-cell lymphoma cell lines; experiment: Cell proliferation assay (6 days, CellTiter-Glo), panel; format: cell-based; conditions: Homo sapiens, 144 h, read-out: growth IC50
Text: Thus, Example 22 and Table 6 better reflect the inhibition of HZH2 inhibitors on cell lines, e.g. the lymphoma cell lines. DLBCL cell lines were the most sensitive to EZH2 inhibition (FIG. 11a). […] Evaluation of GSK126 in additional lymphoma cell lines and extensive genomic and epigenomic characterization will be required to fully elucidate the determinants of sensitivity among lymphoma subtypes.
as §1

[3] = system: Pfeiffer xenografts; experiment: Subcutaneous tumor xenograft efficacy study; format: in vivo, mice; conditions: daily 50 mg/kg, intraperitoneal
Experimental: (§2) Biochemical assays utilized the 5-member PRC2 complex (human Flag-EZH2, EED, SUZ12, AEBP2, RbAp48) containing either WT or mutant EZH2, [^3H-]SAM and the indicated peptide substrate; reactions were incubated for 30 minutes. Global histone modification levels were determined by ELISA or western blot methods using antibodies specific for total histone H3, H3K27me1, H3K27me2, or H3K27me3. Cell proliferation and Caspase-3/7 activity were assessed using CellTiter-Glo and Caspase-Glo 3/7 (Promega), respectively. Gene expression profiling was conducted using Affymetrix Human Genome U133 Plus 2.0 microarrays. Differentially-expressed probe sets were determined by fitting the data to a linear model using the limma statistical package (http://www.bioconductor.org) and carrying out pair-wise contrasts of treated versus control. Significant probe sets were filtered for detection (log2 signal threshold of 8), an average fold-change >2 or <−2, or >1.5 or <−1.5, where indicated, with p-values adjusted for multiple testing correction by FDR (Benjamini Hochberg)<0.1. H3K27me3 ChIP reads were aligned using Bowtie (56). H3K27me3 enrichment peaks were identified using SICER (57) with optimized parameters. A custom PERL script was utilized to quantify the average basal H3K27me3 ChIP-seq tag density across gene sets. All in vivo studies were conducted after review by the Institutional Animal Care and Use Committee at GSK and in accordance with the GSK Policy on the Care, Welfare and Treatment of Laboratory Animals. GSK126 and vehicle were administered to mice intraperitoneally. Two-tailed t-tests were conducted assuming two samples of equal variance.
(§3) All studies were conducted after review by the Institutional Animal Care and Use Committee at GSK and in accordance with the GSK Policy on the Care, Welfare and Treatment of Laboratory Animals. […] Pfeiffer or KARPAS-422 cells (1×10^7) in 100% matrigel (BD Biosciences) were implanted subcutaneously in female beige SCID mice. Tumors were measured with calipers, block randomized according to tumor size into treatment groups. […] Mice were weighed and tumors measured with calipers twice weekly. For mouse pharmacokinetic studies, tumor and blood samples were harvested from euthanized mice at the indicated time. […] For pharmacodynamic studies, a portion of each tumor was frozen for H3K27me3/H3 ELISAs or placed in RNAlater (Ambion) for RNA isolation. For peripheral blood analyses, blood was harvested via cardiac puncture from euthanized, immunocompetent CD-1 mice (3 mice/group) on day 18. Blood was immediately placed into a Microtainer EDTA tube (BD) and gently mixed by inverting. A complete blood count analysis was conducted using the Advia 2120 hematology analyzer (Siemens Medical Solutions) using multi-species software as per manufacturer's instructions.

[4] = system: KARPAS-422 xenografts; experiment: Subcutaneous tumor xenograft efficacy study; format: in vivo, mice; conditions: for tumor response upon cessation of dosing / tumor growth: KARPAS-422 xenografts
Experimental: as §2, §3

[5] = biological target: EZH1 (Homo sapiens, UniProt Q92800); experiment: Inhibition of EZH1 methyltransferase activity; format: biochemical; conditions: read-out: Ki app
EZH1, sequence (Q92800 whole entry): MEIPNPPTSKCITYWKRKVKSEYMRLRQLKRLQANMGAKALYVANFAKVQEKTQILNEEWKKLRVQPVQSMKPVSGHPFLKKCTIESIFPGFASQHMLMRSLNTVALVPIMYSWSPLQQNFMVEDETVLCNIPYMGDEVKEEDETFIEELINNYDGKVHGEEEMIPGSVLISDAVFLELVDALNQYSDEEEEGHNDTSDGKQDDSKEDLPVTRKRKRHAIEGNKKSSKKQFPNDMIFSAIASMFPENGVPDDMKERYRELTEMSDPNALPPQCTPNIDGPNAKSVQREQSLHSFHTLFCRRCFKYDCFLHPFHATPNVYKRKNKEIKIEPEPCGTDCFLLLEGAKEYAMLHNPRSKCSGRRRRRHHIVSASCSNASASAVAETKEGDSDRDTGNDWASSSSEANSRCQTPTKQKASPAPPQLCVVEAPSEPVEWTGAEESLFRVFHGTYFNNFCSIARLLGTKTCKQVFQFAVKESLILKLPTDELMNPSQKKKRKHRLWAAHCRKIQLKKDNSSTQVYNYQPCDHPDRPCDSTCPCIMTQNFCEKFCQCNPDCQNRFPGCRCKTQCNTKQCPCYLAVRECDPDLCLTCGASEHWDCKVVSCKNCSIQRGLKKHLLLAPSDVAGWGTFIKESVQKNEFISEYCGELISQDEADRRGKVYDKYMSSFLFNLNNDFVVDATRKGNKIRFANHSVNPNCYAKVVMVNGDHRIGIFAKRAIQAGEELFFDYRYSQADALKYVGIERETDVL
EZH1, sequence (O75530 whole entry partner): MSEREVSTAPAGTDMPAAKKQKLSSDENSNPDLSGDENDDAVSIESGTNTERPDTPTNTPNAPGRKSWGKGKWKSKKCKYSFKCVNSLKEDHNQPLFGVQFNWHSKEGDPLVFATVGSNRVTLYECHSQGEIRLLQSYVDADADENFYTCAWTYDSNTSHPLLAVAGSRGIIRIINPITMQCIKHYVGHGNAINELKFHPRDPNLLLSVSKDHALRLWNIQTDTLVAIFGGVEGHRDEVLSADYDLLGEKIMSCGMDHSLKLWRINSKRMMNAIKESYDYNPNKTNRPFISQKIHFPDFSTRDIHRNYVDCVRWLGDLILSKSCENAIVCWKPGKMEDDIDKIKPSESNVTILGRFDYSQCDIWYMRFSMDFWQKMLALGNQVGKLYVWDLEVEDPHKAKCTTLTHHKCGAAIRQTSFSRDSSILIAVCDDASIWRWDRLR
EZH1, sequence (Q15022 whole entry partner): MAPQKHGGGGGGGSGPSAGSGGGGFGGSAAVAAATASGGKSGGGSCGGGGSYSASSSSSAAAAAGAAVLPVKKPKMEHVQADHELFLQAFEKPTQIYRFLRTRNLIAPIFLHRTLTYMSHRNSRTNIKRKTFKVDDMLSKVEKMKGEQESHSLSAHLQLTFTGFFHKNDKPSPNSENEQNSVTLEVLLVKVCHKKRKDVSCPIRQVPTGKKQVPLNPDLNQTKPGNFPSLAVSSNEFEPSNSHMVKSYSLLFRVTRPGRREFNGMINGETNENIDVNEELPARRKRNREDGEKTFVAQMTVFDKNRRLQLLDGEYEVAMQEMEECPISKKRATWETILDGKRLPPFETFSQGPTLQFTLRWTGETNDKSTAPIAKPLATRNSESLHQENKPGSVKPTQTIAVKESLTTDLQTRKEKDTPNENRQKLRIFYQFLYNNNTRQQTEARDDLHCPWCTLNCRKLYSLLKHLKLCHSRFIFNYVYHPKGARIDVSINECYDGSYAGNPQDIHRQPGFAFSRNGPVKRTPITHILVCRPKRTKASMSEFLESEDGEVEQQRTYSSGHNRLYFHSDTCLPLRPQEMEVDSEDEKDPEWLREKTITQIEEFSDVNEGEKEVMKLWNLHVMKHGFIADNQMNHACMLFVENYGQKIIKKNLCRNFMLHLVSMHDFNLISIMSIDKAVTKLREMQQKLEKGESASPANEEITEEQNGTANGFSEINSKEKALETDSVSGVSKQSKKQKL

[6] = system: KARPAS-422; experiment: Cell cycle analysis by flow cytometry; format: cell-based, human; conditions: 500 nM GSK126, 72 hours
Experimental: Cell cycle phase distribution was examined by flow cytometry. […] Cells were washed with PBS, pelleted in BD buffer solution, flash frozen, and stored at −80° C. CycleTest™ PLUS DNA reagent kit (Becton Dickinson, 340242) was used according to the manufacturer's instructions to prepare and stain nuclei with propidium iodide. Samples were evaluated using a FACSCalibur flow cytometer (Becton Dickinson) and data were analyzed using FlowJo software (Tree Star).

[7] = system: H3K27me3/2/1, histone H3, EZH2, SUZ12, EED in lymphoma cell lines; experiment: Western blot of H3K27 methylation status and PRC2 components following GSK126 treatment; format: cell-based, human
Experimental: Cell lines were obtained from the American Type Culture Collection or the Deutsche Sammlung von Mikroorganismen und Zellbulturen and maintained in the recommended cell culture media at 37° C. in 5% CO2. Cells were lysed with radioimmunoprecipitation (RIPA) buffer (ThermoScientific) and western blot analysis was conducted as previously described (41). Antibodies were obtained as previously described (41) or from Cell Signaling Technology (SUZ12, 3737), or Santa Cruz Biotechnology (EED, sc-28701).
Cells (2×10^5/well) were seeded into six-well tissue culture plates in the appropriate cell culture media 24 hours before treatment.

CC[C@H](C)n1cc(C)c2c(C(=O)NCc3c(C)cc(C)[nH]c3=O)cc(-c3ccc(N4CCNCC4)nc3)cc21 [GSK126] was tested, and the IC50 [1] was 0.01 to 0.252 µM, the IC50 ([2]; Burkitt (BL) and Hodgkin's (HL) lymphoma cell lines, with the exception of Jiyoye) was > 1.3 µM and the IC50 ([2]; B-cell, six of the seven most sensitive DLBCL cell lines, harboring Y641N, Y641F, or A677G EZH2 mutations) was 0.028 to 0.861 µM. The tumor growth [3] was “complete tumor growth inhibition”, the tumor growth inhibition ([4]; KARPAS-422 xenografts with large tumors, intermittent dosing, weekly or with 1 week drug holiday, all schedules) was 91-100% and the “tumor response upon cessation of dosing” value ([4]; 50 mg/kg QD group) was “tumor stasis”. The “tumor response upon cessation of dosing” value ([4]; 150 mg/kg QD group) was “complete tumor eradication”, the “tumor response upon cessation of dosing” value ([4]; 300 mg/kg twice/week group) was “complete tumor eradication” and the tumor growth ([4]; daily 50 mg/kg, intraperitoneal) was “complete tumor growth inhibition”. For the same compound, the tumor growth ([4]; higher dosing regimens) was “marked tumor regression”, the survival of mice ([4]; mice bearing KARPAS-422 tumors) was “statistically significant increased survival” and the Ki [5] was 0.089 µM. The “cells in G1” value [6] was 77%, the “Total histone H3 and PRC2 components” value ([7]; 25 nM-2 μM, 72 hrs) was “not affected” and the H3K27me1 level ([7]; 72 hours) was “only weakly reduced at the highest inhibitor concentration”.

Reference: US20170348306A1, “METHODS OF TREATING CANCER” (GLAXOSMITHKLINE LLC, priority 2011, published 2017)
